Test results published in PubChem BioAssay (NCI).
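Dose response: 5 concentrations. Exposure: 48 h. Format: 96-well plates. Endpoint: linear interpolation; highest concentration if not reached. At the TGI there is no net growth.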

Columns and labels:
Test in all cases: NCI-60 cell line screen, 48 h
MDA-MB-231 breast = test system: MDA-MB-231 breast
K-562 leukemia = test system: K-562 leukemia
HCT-116 colon = test system: HCT-116 colon
CAKI-1 renal = test system: CAKI-1 renal
SR leukemia = test system: SR leukemia
T-47D breast = test system: T-47D breast
HT29 colon = test system: HT29 colon
COLO 205 colon = test system: COLO 205 colon
DU-145 prostate = test system: DU-145 prostate
ACHN renal = test system: ACHN renal
EKVX NSCLC = test system: EKVX NSCLC
NCI/ADR-RES ovarian = test system: NCI/ADR-RES ovarian
SF-268 CNS = test system: SF-268 CNS
U251 CNS = test system: U251 CNS
HCC-2998 colon = test system: HCC-2998 colon
SK-MEL-2 melanoma = test system: SK-MEL-2 melanoma
MOLT-4 leukemia = test system: MOLT-4 leukemia
HOP-62 NSCLC = test system: HOP-62 NSCLC
OVCAR-5 ovarian = test system: OVCAR-5 ovarian
IGROV1 ovarian = test system: IGROV1 ovarian
HS 578T breast = test system: HS 578T breast
CCRF-CEM leukemia = test system: CCRF-CEM leukemia
MDA-MB-435 = test system: MDA-MB-435
SF-295 CNS = test system: SF-295 CNS
M14 melanoma = test system: M14 melanoma
UACC-62 melanoma = test system: UACC-62 melanoma
NCI-H23 lung = test system: NCI-H23 lung
BT-549 breast = test system: BT-549 breast
KM12 colon = test system: KM12 colon
LOX IMVI melanoma = test system: LOX IMVI melanoma
RXF 393 renal = test system: RXF 393 renal
UACC-257 melanoma = test system: UACC-257 melanoma
SK-MEL-5 melanoma = test system: SK-MEL-5 melanoma
NCI-H226 lung = test system: NCI-H226 lung
HL-60(TB) leukemia = test system: HL-60(TB) leukemia
SK-MEL-28 melanoma = test system: SK-MEL-28 melanoma
NCI-H522 lung = test system: NCI-H522 lung
MALME-3M melanoma = test system: MALME-3M melanoma
SW-620 colon = test system: SW-620 colon
OVCAR-4 ovarian = test system: OVCAR-4 ovarian
HCT-15 colon = test system: HCT-15 colon
MDA-N = test system: MDA-N
NCI-H460 lung = test system: NCI-H460 lung
SN12C renal = test system: SN12C renal
A498 renal = test system: A498 renal
SNB-19 CNS = test system: SNB-19 CNS
PC-3 prostate = test system: PC-3 prostate
OVCAR-3 ovarian = test system: OVCAR-3 ovarian
786-0 renal = test system: 786-0 renal
RPMI-8226 leukemia = test system: RPMI-8226 leukemia
A549 NSCLC = test system: A549 NSCLC
TK-10 renal = test system: TK-10 renal
HOP-92 NSCLC = test system: HOP-92 NSCLC
MCF7 breast = test system: MCF7 breast
OVCAR-8 ovarian = test system: OVCAR-8 ovarian
SK-OV-3 ovarian = test system: SK-OV-3 ovarian
SNB-75 CNS = test system: SNB-75 CNS
SF-539 CNS = test system: SF-539 CNS
UO-31 renal = test system: UO-31 renal

COc1cc2c3c(c1O)C1(C=CC(=O)C=C1)CC3N(C)CC2 (stereo unspecified)
TGI (MDA-MB-231 breast): 17.4 µM
TGI (K-562 leukemia): > 100 µM
TGI (HCT-116 colon): 14.5 µM
TGI (CAKI-1 renal): 35.5 µM
TGI (SR leukemia): 25.8 µM
TGI (T-47D breast): 26.2 µM
TGI (HT29 colon): 23.4 µM
TGI (COLO 205 colon): 18.2 µM
TGI (DU-145 prostate): 26 µM
TGI (ACHN renal): 43.4 µM
TGI (EKVX NSCLC): 25.6 µM
TGI (NCI/ADR-RES ovarian): 11 µM
TGI (SF-268 CNS): 34.6 µM
TGI (U251 CNS): 15.4 µM
TGI (HCC-2998 colon): 24.8 µM
TGI (SK-MEL-2 melanoma): 25.9 µM
TGI (MOLT-4 leukemia): 37.3 µM
TGI (HOP-62 NSCLC): 25.7 µM
TGI (OVCAR-5 ovarian): 36.3 µM
TGI (IGROV1 ovarian): 25.4 µM
TGI (HS 578T breast): > 100 µM
TGI (CCRF-CEM leukemia): 13.8 µM
TGI (MDA-MB-435): 23 µM
TGI (SF-295 CNS): 24.3 µM
TGI (M14 melanoma): 24.5 µM
TGI (UACC-62 melanoma): 23.1 µM
TGI (NCI-H23 lung): 31.5 µM
TGI (BT-549 breast): 30.6 µM
TGI (KM12 colon): 17.5 µM
TGI (LOX IMVI melanoma): 9.28 µM
TGI (RXF 393 renal): 19.4 µM
TGI (UACC-257 melanoma): 27.7 µM
TGI (SK-MEL-5 melanoma): 32.6 µM
TGI (NCI-H226 lung): > 100 µM
TGI (HL-60(TB) leukemia): 10.9 µM
TGI (SK-MEL-28 melanoma): 26 µM
TGI (NCI-H522 lung): 7.21 µM
TGI (MALME-3M melanoma): 24.8 µM
TGI (SW-620 colon): 18.3 µM
TGI (OVCAR-4 ovarian): > 100 µM
TGI (HCT-15 colon): 19 µM
TGI (MDA-N): 24.2 µM
TGI (NCI-H460 lung): 18.3 µM
TGI (SN12C renal): 30.2 µM
TGI (A498 renal): 48.4 µM
TGI (SNB-19 CNS): 27.9 µM
TGI (PC-3 prostate): 31.1 µM
TGI (OVCAR-3 ovarian): 22.9 µM
TGI (786-0 renal): 15.6 µM
TGI (RPMI-8226 leukemia): 83.7 µM
TGI (A549 NSCLC): > 100 µM
TGI (TK-10 renal): 41.7 µM
TGI (HOP-92 NSCLC): 24 µM
TGI (MCF7 breast): 20.5 µM
TGI (OVCAR-8 ovarian): 38.4 µM
TGI (SK-OV-3 ovarian): > 100 µM
TGI (SNB-75 CNS): 43.4 µM
TGI (SF-539 CNS): 28.8 µM

COc1ccc(C(=O)c2ccc(-n3c4ccccc4c4ccc5c(c43)C(=O)C=CC5=O)cc2)cc1
TGI (MDA-MB-231 breast): 5.22 µM
TGI (K-562 leukemia): > 100 µM
TGI (HCT-116 colon): 2.77 µM
TGI (CAKI-1 renal): 0.366 µM
TGI (SR leukemia): > 100 µM
TGI (T-47D breast): > 100 µM
TGI (HT29 colon): 3.65 µM
TGI (COLO 205 colon): 9.34 µM
TGI (DU-145 prostate): > 21.8 µM
TGI (ACHN renal): 1.8 µM
TGI (EKVX NSCLC): 4.32 µM
TGI (NCI/ADR-RES ovarian): > 21.3 µM
TGI (SF-268 CNS): 2.33 µM
TGI (U251 CNS): 3.54 µM
TGI (HCC-2998 colon): 11.5 µM
TGI (SK-MEL-2 melanoma): 11.3 µM
TGI (MOLT-4 leukemia): > 100 µM
TGI (HOP-62 NSCLC): 28.7 µM
TGI (UO-31 renal): 1.07 µM
TGI (OVCAR-5 ovarian): 40.3 µM
TGI (IGROV1 ovarian): 10.4 µM
TGI (HS 578T breast): 4.51 µM
TGI (MDA-MB-435): 3.14 µM
TGI (SF-295 CNS): 17.1 µM
TGI (M14 melanoma): 7.45 µM
TGI (UACC-62 melanoma): 8.02 µM
TGI (NCI-H23 lung): 5.18 µM
TGI (BT-549 breast): 8.06 µM
TGI (KM12 colon): 10 µM
TGI (LOX IMVI melanoma): 4.31 µM
TGI (RXF 393 renal): 16 µM
TGI (UACC-257 melanoma): 7.05 µM
TGI (SK-MEL-5 melanoma): 12.9 µM
TGI (NCI-H226 lung): 69.4 µM
TGI (NCI-H522 lung): 0.936 µM
TGI (OVCAR-4 ovarian): 6.37 µM
TGI (HCT-15 colon): 6.07 µM
TGI (MDA-N): 7.89 µM
TGI (NCI-H460 lung): 19.3 µM
TGI (SN12C renal): 4.01 µM
TGI (A498 renal): 5.09 µM
TGI (SNB-19 CNS): 11 µM
TGI (PC-3 prostate): 3.3 µM
TGI (OVCAR-3 ovarian): 2.68 µM
TGI (786-0 renal): 1.3 µM
TGI (RPMI-8226 leukemia): > 100 µM
TGI (A549 NSCLC): 10.8 µM
TGI (TK-10 renal): 3.76 µM
TGI (HOP-92 NSCLC): 8.66 µM
TGI (MCF7 breast): 2.6 µM
TGI (SK-OV-3 ovarian): 27.5 µM
TGI (SNB-75 CNS): > 30.9 µM
TGI (SF-539 CNS): 5.78 µM
